Laboratory results from paper PMC4671662, “Identification of New Molecular Entities (NMEs) as Potential Leads against Tuberculosis from Open Source Compound Repository” (PLoS ONE, 2015).
Values after ≈ are worked out from the molar mass of the structure shown. Where two headings read alike, the source gives them in different places.

How the values were obtained:
[1] = tested on: M. tuberculosis (H37Rv); assay: M. tuberculosis (H37Rv) inhibition assay, Alamar Blue MIC; format: cell-based; details: Mycobacterium tuberculosis, 168 h, six days + 24 h
[2] = tested on: Mycobacterium smegmatis (mc^2155); assay: Antimycobacterial assay, turbidometric MIC (OD 600 nm); format: cell-based; details: Mycolicibacterium smegmatis, read-out: M. smeg MIC
[3] = tested on: Mycobacterium bovis (BCG); assay: microbe, parasite or virus in culture; format: cell-based; details: Mycobacterium tuberculosis variant bovis BCG, 96 h, read-out: BCG MIC
[4] = tested on: Mycobacterium; assay: Minimum Bactericidal Concentration (MBC) test, CFU approach; format: cell-based; details: for Bacteriocidal/Bacteriostatic: from comparison of MIC and MBC; for MBC compared with MIC: against the test organisms of the study
[5] = tested on: HepG2 (human hepatoma cells); assay: Sulforhodamine B (SRB) cytotoxicity assay; format: cell-based; details: 48 h
[6] = tested on: A549 (human lung epithelial cells); assay: Sulforhodamine B (SRB) cytotoxicity assay; format: cell-based; details: 48 h
[7] = tested on: MCF-7; design: method as in PMID 18507473; details: cited from earlier work
[8] = tested on: NCI-H460; design: method as in PMID 18507473; details: cited from earlier work
[9] = tested on: SF-264; design: method as in PMID 18507473; details: cited from earlier work
[10] = tested on: M. smegmatis (MC^2 155); assay: M. smegmatis primary screening, z-score; format: cell-based, Mycobacterium smegmatis; details: positive controls in primary screening
[11] = tested on: Campylobacter fetus subsp. jejuni; details: cited from earlier work
[12] = MC^2155, lowest concentration with 90% growth inhibition, 32 hours

Row | Molecule | MIC [1] [µM] | MIC [2, 12] [µM] | MIC [3] [µM] | Bacteriocidal/Bacteriostatic [4] | IC50 [5] [µM] | IC50 [6] [µM] | MBC compared with MIC [4] | IC50 [7] [µM] | IC50 [8] [µM] | IC50 [9] [µM] | MIC ([2]; MC^2155, 32 h) [µM] | mean z-score [10] | MBC [11] [µg/mL] | MIC [11] [µg/mL]
1 | COc1cc2c(cc1NC(=O)N1CCCCC1c1cccnc1)oc1ccccc12 (stereo not shown) [Compound H15] | 12.5 | 42 (≈ 16.9 µg/mL) | 12 (≈ 4.83 µg/mL) | Bacteriostatic | 510 | 526 |  |  |  |  |  |  |  | 
2 | O=C(CC1(O)c2ccccc2-n2c1nc1ccccc1c2=O)c1ccccc1 (stereo not shown) [Compound H26] | 0.4 | 53 (≈ 19.5 µg/mL) | 12 (≈ 4.44 µg/mL) | bactericidal activity | 417 | 368 | MBC values equivalent to their MIC values | > 50 | > 50 | > 50 |  |  |  | 
3 | N#Cc1ccc(C(=O)CC2(O)c3ccccc3-n3c2nc2ccccc2c3=O)cc1 (stereo not shown) [Compound H27] | 1.56 | 12.8 (≈ 5.05 µg/mL) | 6.58 (≈ 2.59 µg/mL) | Bacteriostatic | 444 | 902 |  |  |  |  |  |  |  | 
4 | O=C(CSc1nnc(COc2ccc(F)cc2)o1)OC1CCCCC1 [Compound H43] | 6.28 | 52 (≈ 19 µg/mL) | 13.5 (≈ 4.96 µg/mL) | Bacteriostatic | 373 | 335 |  |  |  |  |  |  |  | 
5 | Cc1nc(C)c(C(=O)N(c2cccc(C)c2C)C(C(=O)NC2CCCCC2)c2ccccc2)s1 (stereo not shown) [Compound H85] | 12.5 | 25.1 (≈ 12 µg/mL) | 11.5 (≈ 5.47 µg/mL) | Bacteriostatic | 790 | 497 |  |  |  |  |  |  |  | 
6 | CCSc1nsc(NC(=O)Nc2ccc(C(F)(F)F)cc2)n1 [Compound H94] | 6.25 | 25.4 (≈ 8.83 µg/mL) | 12.7 (≈ 4.42 µg/mL) | Bacteriostatic | 599 | 443 |  |  |  |  |  |  |  | 
7 | Cc1ccc(-c2nc3ccccc3s2)cc1 [Compound H117] | 12.5 | 26.8 (≈ 6.04 µg/mL) | 14.9 (≈ 3.36 µg/mL) | Bacteriostatic | 408 | 475 |  |  |  |  |  |  |  | 
8 | Cc1ccc(C)c(Cn2nnc3c(O)nc(C4CCCN(C(=O)c5ccc(C(C)(C)C)cc5)C4)nc32)c1 (stereo not shown) [Compound H126] | 12.5 | 30.6 (≈ 15.3 µg/mL) | 23.8 (≈ 11.9 µg/mL) | Bacteriostatic | 357 | 369 |  |  |  |  |  |  |  | 
9 | O=C(CSc1nnc2scc(-c3ccccc3)n12)Nc1ccc(N2CCCC2)cc1 [Compound H127] | 12.5 | 46.6 (≈ 20.3 µg/mL) | 14.2 (≈ 6.19 µg/mL) | Bacteriostatic | 348 | 411 |  |  |  |  |  |  |  | 
10 | Nc1ccc(C(=O)CSc2nnc3c(n2)CCCC3)cc1 [Compound H134] | 12.5 | 22.7 (≈ 6.82 µg/mL) | 10.9 (≈ 3.27 µg/mL) | Bacteriostatic | 368 | 424 |  |  |  |  |  |  |  | 
11 | Nc1ccc(C(=O)CC2(O)c3ccccc3-n3c2nc2ccccc2c3=O)cc1 (stereo not shown) [Compound H136] | 1.6 | 42.5 (≈ 16.3 µg/mL) | 11.4 (≈ 4.37 µg/mL) | bactericidal activity | 359 | 321 | MBC values equivalent to their MIC values |  |  |  |  |  |  | 
12 | O=C(Cn1c(=O)n(Cc2ccc(F)cc2)c(=O)c2ccccc21)Nc1cc(F)ccc1F [Compound H137] | 12.5 | 39.2 (≈ 17.2 µg/mL) | 22.8 (≈ 10 µg/mL) | Bacteriostatic | 390 | 385 |  |  |  |  |  |  |  | 
13 | COc1cccc2c1C(=O)c1c(O)c3c(c(O)c1C2=O)C[C@@](O)(C(=O)CO)C[C@@H]3O[C@H]1C[C@H](N)[C@H](O)[C@H](C)O1 [Doxorubicin, reference compound] |  |  |  |  | 4.6 | 5.2 |  |  |  |  |  |  |  | 
14 | NNC(=O)c1ccncc1 [Isoniazid, reference compound] |  |  |  |  |  |  |  |  |  |  | 11 (≈ 1.51 µg/mL) | 4.9 |  | 
15 | CO[C@H]1/C=C/O[C@@]2(C)Oc3c(C)c(O)c4c(O)c(c(/C=N/N5CCN(C)CC5)c(O)c4c3C2=O)NC(=O)/C(C)=C\C=C\[C@H](C)[C@H](O)[C@@H](C)[C@@H](O)[C@@H](C)[C@H](OC(C)=O)[C@@H]1C [Rifampicin, reference compound] |  |  |  |  |  |  |  |  |  |  | 2.43 (≈ 2 µg/mL) | 4.4 |  | 
16 | co-trimoxazole |  |  |  |  |  |  |  |  |  |  |  |  | 125 | 31.2
